In paper PMC6021032, “Antimycobacterial activity of nitrogen heterocycles derivatives: 7-(pyridine-4-yl)-indolizine derivatives. Part VII^8–12” (Journal of Enzyme Inhibition and Medicinal Chemistry, 2017):
≈ marks a conversion by molar mass, not a printed value. Where two headings read alike, the source gives them in different places.

Experiments:
Assay in all cases: microbe, parasite or virus in culture
Assay type in all cases: cell-based, Mycobacterium tuberculosis
[1] = tested on: rifampicin resistant strain RIF-R2
[2] = tested on: isoniazid resistant strain INH-R1
[3] = tested on: rifampicin resistant strain RIF-R1
[4] = tested on: fluoroquinolone resistant strain FQ-R1
[5] = tested on: isoniazid resistant strain INH-R2
[6] = Mycobacterium tuberculosis, RIFR2, read-out: IC50
[7] = Mycobacterium tuberculosis, RIFR2, read-out: IC90
[8] = Mycobacterium tuberculosis, RIFR2, read-out: MIC
[9] = Mycobacterium tuberculosis, INHR1
[10] = Mycobacterium tuberculosis, RIFR1, read-out: IC50
[11] = Mycobacterium tuberculosis, RIFR1, read-out: IC90
[12] = Mycobacterium tuberculosis, RIFR1, read-out: MIC
[13] = Mycobacterium tuberculosis, FQR1, read-out: IC50
[14] = Mycobacterium tuberculosis, FQR1, read-out: IC90
[15] = Mycobacterium tuberculosis, FQR1, read-out: MIC
[16] = Mycobacterium tuberculosis, INHR2
[17] = Mycobacterium tuberculosis, RIFR2
[18] = Mycobacterium tuberculosis, RIFR1
[19] = Mycobacterium tuberculosis, FQR1

Compound | IC50 [1, 6] [µM] | IC90 [1, 7] [µM] | MIC [1, 8] [µM] | IC50 [2, 9] [µM] | IC90 [2, 9] [µM] | MIC [2, 9] [µM] | IC50 [3, 10] [µM] | IC90 [3, 11] [µM] | MIC [3, 12] [µM] | IC50 [4, 13] [µM] | IC90 [4, 14] [µM] | MIC [4, 15] [µM] | IC50 [5, 16] [µM] | IC90 [5, 16] [µM] | MIC [5, 16] [µM] | other results
C[C@H]1COc2c(N3CCN(C)CC3)c(F)cc3c(=O)c(C(=O)O)cn1c23 [Levofloxacin, levofloxacin, reference compound] | 1.7 | 3 | 2.9 (≈ 1.05 µg/mL) | 1.9 | 3 | 2.9 (≈ 1.05 µg/mL) | 1.6 | 2.6 | 2.7 (≈ 0.976 µg/mL) | 49 | 110 | 110 (≈ 39.8 µg/mL) | 2.4 | 4.3 | 3.5 (≈ 1.26 µg/mL) | 
4-[3-(4-Chlorophenyl)-1-(ethoxycarbonyl)indolizine-7-yl)-1-(2-(4-methoxyphenyl)-2-oxoethyl)pyridine-1-ium bromide [Compound 6c] |  |  |  |  |  |  |  |  |  |  |  |  |  |  |  | IC90 ([1]; read-out: IC90): 12 µM; MIC ([1]; read-out: MIC): 13 µM; MIC ([2]; INH-R1): 14 µM; IC50 ([2]; INH-R1, read-out: IC50): 6.9 µM; IC90 ([2]; INH-R1, read-out: IC90): 14 µM; IC50 ([3]; read-out: IC50): 6.5 µM; IC90 ([3]; read-out: IC90): 10 µM; MIC ([3]; read-out: MIC): 10 µM; IC50 ([4]; read-out: IC50): 8 µM; IC90 ([4]; read-out: IC90): 16 µM; MIC ([4]; read-out: MIC): 16 µM; MIC ([5]; INH-R2): 16 µM; IC50 ([5]; INH-R2, read-out: IC50): 6.2 µM; IC90 ([5]; INH-R2, read-out: IC90): 19 µM
CCOC(=O)c1cc(C(=O)c2ccc(Cl)cc2)n2ccc(-c3cc[n+](CC(=O)c4cccc(OC)c4)cc3)cc12 [Compound 6d, 4-(3-(4-Chlorobenzoyl)-1-(ethoxycarbonyl)indolizine-7-yl)-1-(2-(3-methoxyphenyl)-2-oxoethyl)pyridin-1-ium] | 12 | 14 | 16 | 14 | 36 | 28 | 12 | 24 | 22 | 21 | 32 | 32 | 15 | 35 | 30 | 
CCOC(=O)c1cc(C(=O)c2ccccc2)n2ccc(-c3cc[n+](CC(=O)c4ccc(C)cc4)cc3)cc12.[Br-] [Compound 6a, 4-(3-Benzoyl-1-(ethoxycarbonyl)indolizine-7-yl)-1-(2-oxo-2-(p-tolyl)ethyl)pyridin-1-ium bromide] | 12 | 29 | 31 | 13 | 35 | 33 | 8.3 | 13 | 14 | 15 | 32 | 31 | 12 | 22 | 19 | 
CCOC(=O)c1cc(C(=O)c2ccc(Cl)cc2)n2ccc(-c3cc[n+](CC(=O)c4ccc(C)cc4)cc3)cc12 [Compound 6i] | 12 | 22 | 22 | 13 | 23 | 22 | 7.7 | 15 | 15 | 11 | 28 | 27 | 9.8 | 20 | 20 | 
CO[C@H]1/C=C/O[C@@]2(C)Oc3c(C)c(O)c4c(O)c(c(/C=N/N5CCN(C)CC5)c(O)c4c3C2=O)NC(=O)/C(C)=C\C=C\[C@H](C)[C@H](O)[C@@H](C)[C@@H](O)[C@@H](C)[C@H](OC(C)=O)[C@@H]1C [Rifampicin, reference compound] |  |  |  | 0.012 | 0.031 | 0.022 (≈ 0.0181 µg/mL) |  |  |  |  |  |  | 0.007 | 0.016 | 0.013 (≈ 0.0107 µg/mL) | IC50 [1, 17]: > 50 µM; IC90 [1, 17]: > 50 µM; MIC [1, 17]: > 50 µM; IC50 [3, 18]: 1.1 µM; IC90 [3, 18]: 3.8 µM; MIC [3, 18]: 5.3 µM (≈ 4.36 µg/mL); IC50 [4, 19]: 0.013 µM; IC90 [4, 19]: 0.033 µM; MIC [4, 19]: 0.024 µM (≈ 0.0198 µg/mL)
CCOC(=O)c1cc(C(=O)c2ccc(Br)cc2)n2ccc(-c3cc[n+](CC(=O)c4cccc(OC)c4)cc3)cc12 [Compound 6h, 4-(3-(4-Bromobenzoyl)-1-(ethoxycarbonyl)indolizine-7-yl)-1-(2-(3-methoxyphenyl)-2-oxoethyl)pyridin-1-ium] | 15 | > 50 | > 50 | 18 | > 50 | > 50 | 13 | 26 | 24 | 26 | > 50 | > 50 | 16 | 43 | > 50 | 
NNC(=O)c1ccncc1 [Isoniazid, reference compound] | 0.27 | 0.3 | 0.31 (≈ 0.0425 µg/mL) | > 200 | > 200 | > 200 | 0.063 | 0.094 | 0.092 (≈ 0.0126 µg/mL) | 0.13 | 0.15 | 0.16 (≈ 0.0219 µg/mL) | > 200 | > 200 | > 200 | 
